Test results as given in US20120015965A1, “PHARMACEUTICAL COMPOSITION COMPRISING N-[3-CHLORO-4-[(3-FLUOROPHENYL)METHOXY] PHENYL]-6-[5[[[2-(METHYLSULFONYL) ETHYL]AMINO]METHYL]-2-FURYL]-4- QUINAZOLINAMINE” (Ratiopharm GmbH, priority 2008, published 2012).

Assay: Wetting angle (contact angle) of the API by goniometer
Type: physicochemical
Conditions: advancing contact angle, water, 22° C., about 34% RH; accuracy about ±2°; ditosylate monohydrate
Description: Alternatively, the above described necessities can be complied with if the active pharmaceutical ingredient used in the preparation of the pharmaceutical composition has a low wetting angle (also: contact angle). The contact angle is a measure of the wettability, that is the lower the contact angle of a given substance, the better it's wettability. Preferably, the wetting angle is below 55°, preferably below 50° and most preferred below 47°. The wetting angle can be measured according to standard methods known in the art, e.g. by means of a goniometer. For this measurement 0.3 g of API is compressed using a KBr press (2000 kg for 2 minutes) to a moulding with a diameter of 1.25 cm. The sample is stored at 100% RH and placed on a glass frit that is kept in contact with water (Millipore quality) one hour prior to the measurement. The wetting angle is then measured on an OCA40, Dataphysics Instruments GmbH, Filderstadt, at 22° C. and about 34% RH at three different sample positions and at different drop sites (3-5 μl of water, Millipore quality) by a static measurement of advancing and receding contact angles via drop contour analysis using ellipse fit (SCA 20, Dataphysics Instruments GmbH, Filderstadt). The wetting angle is defined as the advancing contact angle. The accuracy of measurement is about ±2°.

contact angle [°] | Substance
56 | Lapatinib ditosylate monohydrate [API used in examples 1 and 2]
45 | Lapatinib ditosylate monohydrate [API used in examples 3 to 5]
